The results in this text go back to ChEMBL document CHEMBL2069206 (J Med Chem, 2012).

Molecules are shown by their SMILES.

The target of assay [1] is Adenosine receptor A2a (Rattus norvegicus) (UniProt P30543). The settings on record: HEK293, 10 uM.
In assay [2] the target is T1, Adenosine receptor A1 (Rattus norvegicus) (UniProt P25099).
T1 sequence (whole entry): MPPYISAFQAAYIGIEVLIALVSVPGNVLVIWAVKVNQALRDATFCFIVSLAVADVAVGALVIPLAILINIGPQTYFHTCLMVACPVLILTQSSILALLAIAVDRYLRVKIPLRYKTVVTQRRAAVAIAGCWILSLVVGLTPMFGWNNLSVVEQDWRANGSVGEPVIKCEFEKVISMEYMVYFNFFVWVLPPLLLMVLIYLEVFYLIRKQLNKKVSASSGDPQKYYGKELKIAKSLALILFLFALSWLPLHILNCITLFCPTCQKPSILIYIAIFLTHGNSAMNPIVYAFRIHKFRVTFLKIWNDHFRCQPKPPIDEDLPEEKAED
Particulars: CHO, 10 uM.

Assay [3] concerns the target T2, Adenosine receptor A1 (Homo sapiens) (UniProt P30542).
T2 sequence (whole entry): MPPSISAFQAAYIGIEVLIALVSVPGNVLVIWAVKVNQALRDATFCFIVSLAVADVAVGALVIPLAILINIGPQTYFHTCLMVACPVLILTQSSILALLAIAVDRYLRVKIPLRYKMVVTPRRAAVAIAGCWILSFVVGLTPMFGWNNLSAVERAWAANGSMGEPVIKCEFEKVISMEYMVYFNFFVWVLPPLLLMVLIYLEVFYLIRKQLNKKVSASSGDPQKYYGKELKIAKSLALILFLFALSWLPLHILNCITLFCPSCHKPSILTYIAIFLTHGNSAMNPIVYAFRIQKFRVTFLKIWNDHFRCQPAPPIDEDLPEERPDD
Put plainly: Agonist activity at human A1 adenosine receptor expressed in CHO cells assessed as inhibition of forskolin-induced cAMP accumulation after 30 mins relative to NECA. It counts as functional, cell-based. In general terms: Cyclic AMP is a second messenger, typically raised through Gs and lowered through Gi signalling.

A further assay deals with T3, Adenosine receptor A3 (Homo sapiens, UniProt P0DMS8).
T3 sequence (P0DMS8 whole entry): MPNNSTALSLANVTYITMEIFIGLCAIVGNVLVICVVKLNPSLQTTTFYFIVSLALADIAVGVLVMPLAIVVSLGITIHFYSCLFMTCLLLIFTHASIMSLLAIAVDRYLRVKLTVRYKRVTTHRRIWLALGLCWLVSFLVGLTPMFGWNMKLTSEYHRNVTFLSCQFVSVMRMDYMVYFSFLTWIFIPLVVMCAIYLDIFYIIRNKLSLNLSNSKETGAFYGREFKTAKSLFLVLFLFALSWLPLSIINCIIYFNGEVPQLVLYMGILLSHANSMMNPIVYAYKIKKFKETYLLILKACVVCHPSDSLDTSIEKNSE
As to the kind of experiment: Displacement of [125I]I-AB-MECA from human A3 adenosine receptor expressed in CHO cells after 60 mins gamma counter. The assay is classed as cell-based.

Assay [4] concerns the target T4, Adenosine receptor A2a (Homo sapiens, UniProt P29274). Put plainly: Displacement of 3[H]CGS21680 from human A2A adenosine receptor expressed in HEK293 cells after 60 mins by Liquid scintillation analysis. The assay is classed as cell-based.
Assay [5] has as its target T4, Adenosine receptor A2a. As to the kind of experiment: Agonist activity at human A2A adenosine receptor expressed in CHO cells assessed as stimulation of forskolin-induced cAMP accumulation after 30 mins. It counts as functional, cell-based.
The target in assay [6] is T5, Adenosine receptor A1 (Homo sapiens, UniProt P30542).
T5 sequence (P30542 whole entry): T2 sequence (whole entry)
As to the kind of experiment: Displacement of 3[H]R-PIA from human A1 adenosine receptor expressed in CHO cells after 60 mins by Liquid scintillation analysis. It counts as cell-based.

In assay [7] the target is T2, Adenosine receptor A1 (Homo sapiens). As to the kind of experiment: Partial agonist activity at human A1 adenosine receptor expressed in CHO cells assessed as inhibition of forskolin-induced cAMP accumulation after 30 mins relative to NECA. The assay is classed as functional, cell-based.
The target of assay [8] is T4, Adenosine receptor A2a. As to the kind of experiment: Agonist activity at human A2A adenosine receptor expressed in CHO cells assessed as stimulation of forskolin-induced cAMP accumulation after 30 mins relative to NECA. The assay is classed as functional, cell-based.
For assay [9], the target named is T5, Adenosine receptor A1. Put plainly: Partial agonist activity at human A1 adenosine receptor expressed in CHO cells assessed as inhibition of forskolin-induced cAMP accumulation after 30 mins. It counts as functional, cell-based.

T4 sequence (P29274 whole entry): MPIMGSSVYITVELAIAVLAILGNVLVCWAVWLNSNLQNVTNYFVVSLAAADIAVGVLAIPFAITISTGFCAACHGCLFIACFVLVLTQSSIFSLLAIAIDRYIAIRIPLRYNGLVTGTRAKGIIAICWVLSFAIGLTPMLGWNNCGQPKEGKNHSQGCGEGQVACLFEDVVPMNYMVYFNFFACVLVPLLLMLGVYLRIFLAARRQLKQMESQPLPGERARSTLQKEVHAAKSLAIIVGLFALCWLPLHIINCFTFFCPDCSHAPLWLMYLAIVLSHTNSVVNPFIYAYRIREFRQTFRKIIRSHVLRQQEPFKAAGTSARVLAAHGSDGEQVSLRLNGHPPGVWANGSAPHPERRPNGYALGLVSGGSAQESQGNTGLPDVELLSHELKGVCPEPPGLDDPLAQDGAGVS
Sequence of Adenosine receptor A2a (Rattus norvegicus) (P30543 whole entry): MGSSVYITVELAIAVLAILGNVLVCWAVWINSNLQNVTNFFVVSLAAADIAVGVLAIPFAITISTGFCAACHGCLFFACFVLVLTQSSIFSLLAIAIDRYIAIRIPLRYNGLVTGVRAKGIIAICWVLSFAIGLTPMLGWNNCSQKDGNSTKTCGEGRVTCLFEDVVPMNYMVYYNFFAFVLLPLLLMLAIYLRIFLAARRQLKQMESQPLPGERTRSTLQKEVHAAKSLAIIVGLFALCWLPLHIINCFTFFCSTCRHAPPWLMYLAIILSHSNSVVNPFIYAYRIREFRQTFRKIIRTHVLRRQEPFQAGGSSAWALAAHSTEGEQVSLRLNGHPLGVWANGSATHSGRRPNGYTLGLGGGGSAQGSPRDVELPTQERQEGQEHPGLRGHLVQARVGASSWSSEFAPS

In general, inhibition refers to the change of the read-out against control, counted positive when it falls. Read a high inhibition as a response far below the control. Consider `NCCNC(=O)[C@H]1O[C@@H](n2cnc3c(N)ncnc32)[C@H](O)[C@@H]1O`, for which the inhibition in assay [1] and in assay [2] was more than 10% throughout.

As usually defined, the Ki is the equilibrium dissociation constant of an inhibitor or competing ligand from its target. One may read the EC50 as the concentration needed to bring the measured effect to its halfway point. In the case of `Nc1ncnc2c1ncn2[C@@H]1O[C@H](C(=O)NC2CC2)[C@@H](O)[C@H]1O`, the Efficacy in [3] was determined as 95.4%. The figures for the Ki at Adenosine receptor A3, at Adenosine receptor A2a [4] and on Adenosine receptor A1 [6] were 0.18 µM, 0.05 µM and 0.0019 µM, respectively. At Adenosine receptor A2a [5], the EC50 was determined as 0.0229 µM.

`NCCCNC(=O)[C@H]1O[C@@H](n2cnc3c(N)ncnc32)[C@H](O)[C@@H]1O` registered a Ki at Adenosine receptor A1 [6] of more than 10 µM.

Take `Nc1ncnc2c1ncn2[C@@H]1O[C@H](C(=O)NCC(F)(F)F)[C@@H](O)[C@H]1O`: the Ki on Adenosine receptor A3 was found to be 0.7 µM; on Adenosine receptor A1 [6], […]. Also, in assay [7], the Efficacy stood at 73.4%.

Take `Nc1ncnc2c1ncn2[C@@H]1O[C@H](C(=O)NC2CCCC2)[C@@H](O)[C@H]1O`: the Efficacy in assay [3] amounted to 92.5%; on Adenosine receptor A2a [8] it was 75%. Further, the Ki was 0.07 µM on Adenosine receptor A3, 0.65 µM at Adenosine receptor A2a [4] and 0.027 µM at Adenosine receptor A1 [6]. Further, the EC50 on Adenosine receptor A2a [5] was 0.225 µM.

`CCNC(=O)[C@H]1O[C@@H](n2cnc3c(N)ncnc32)[C@H](O)[C@@H]1O`: the Efficacy in [3] stood at 100%.

For the compound `Nc1ncnc2c1ncn2[C@@H]1O[C@H](C(=O)NC2CCC2)[C@@H](O)[C@H]1O`, the EC50 on Adenosine receptor A1 [9] was 0.0151 µM; at Adenosine receptor A2a [5] it was 0.0268 µM. Further, the Ki was found to be 0.07 µM at Adenosine receptor A3 and 0.034 µM on Adenosine receptor A2a [4]. Also, the Efficacy at Adenosine receptor A2a [8] came out at 99%; in assay [7], 65.2%.
